Among the data in PMC11748363, “Antimicrobial and Antiproliferative Properties of 2‐Phenyl‐N‐(Pyridin‐2‐yl)acetamides” (Chemical Biology & Drug Design, 2025) are MIC and IC90 values, retold here.

Molecules are shown by their SMILES. ≈ marks a conversion by molar mass, not a printed value. Read-outs that look alike come from different tables or passages of the source. A value given as a limit tells only on which side of the number the result lay.

Test [1] deals with Candida krusei CCM 8271, ATCC 6258. The test can be described thus: Antifungal microdilution broth MIC, CK. To be noted: Pichia kudriavzevii; for MIC: 24 h, read-out: MIC visual detection, CK; for IC90: ATCC6258|CCM8271, 24 h. (In general: Dilution methods test growth across graded concentrations, often in twofold steps.)
Test [2] has as its system Aspergillus flavus CCM 8363. The test is described as follows: Antifungal microdilution broth MIC, AFla. To be noted: CCM8363, 48 h; for MIC: read-out: MIC visual detection, AFla.
The test system of test [3] is Candida tropicalis CCM 8264, ATCC 750. The test can be described thus: Antifungal microdilution broth MIC, CT. To be noted: for MIC: 24 h, read-out: MIC visual detection, CT; for IC90: ATCC750|CCM8264, 24 h.
For test [4], the system named is Aspergillus fumigatus ATCC 204305. The test can be described thus: Antifungal microdilution broth MIC, AF. To be noted: ATCC204305, 48 h; for MIC: read-out: MIC visual detection, AF.
In test [5] the test system is Lichtheimia corymbifera CCM 8077. The test is described as follows: Antifungal microdilution broth MIC, LC. To be noted: CCM8077, 48 h; for MIC: read-out: MIC visual detection, LC.
For test [6], the system named is Candida albicans CCM 8320, ATCC 24433. The test can be described thus: Antifungal microdilution broth MIC, CA. To be noted: for MIC: 24 h, read-out: MIC visual detection, CA; for IC90: ATCC24433|CCM8320, 24 h.
Test [7] deals with Candida parapsilosis CCM 8260, ATCC 22019. The test is described as follows: Antifungal microdilution broth MIC, CP. To be noted: Lodderomyces parapsilosis, ATCC22019|CCM8260, 24 h; for MIC: read-out: MIC visual detection, CP.
Test [8] relates to Trichophyton interdigitale CCM 8377, ATCC 9533. The test is described as follows: Antifungal microdilution broth MIC, TI. To be noted: Trichophyton interdigitale, ATCC9533|CCM8377, 48 h; for MIC: read-out: MIC visual detection, TI.
In test [9] the test system is Mycobacterium tuberculosis H37Ra. The test is described as follows: Antimycobacterial microdilution broth MIC (resazurin), Mtb H37Ra. In kind it is cell-based. To be noted: Mycobacterium tuberculosis, H37RA.
Test [10] has as its system Escherichia coli CCM 3954, ATCC 25922. The test is described as follows: Antibacterial microdilution broth MIC, EC. In kind it is cell-based.
Test [11] has as its system Enterococcus faecalis CCM 4224, ATCC 29212. The test can be described thus: Antibacterial microdilution broth MIC, EF. In kind it is cell-based.
The subject of test [12] is Staphylococcus epidermidis CCM 4418, ATCC 12228. The test is described as follows: Antibacterial microdilution broth MIC, SE. The class given is cell-based.
Test [13] relates to Pseudomonas aeruginosa CCM 3955, ATCC 27853. The test can be described thus: Antibacterial microdilution broth MIC, PA. In kind it is cell-based.
For test [14], the system named is Staphylococcus aureus subsp. aureus CCM 4750, ATCC 43300 (MRSA). The test can be described thus: Antibacterial microdilution broth MIC, MRSA. To be noted: Staphylococcus aureus, internal quality controls, 24h. The class given is cell-based.
The subject of test [15] is Staphylococcus aureus CCM 4223, ATCC 29213. The test is described as follows: Antibacterial microdilution broth MIC, SA. In kind it is cell-based. To be noted: Staphylococcus aureus, internal quality controls, 24h.
The subject of test [16] is Acinetobacter baumannii DSM 30007, ATCC 19606. The test is described as follows: Antibacterial microdilution broth MIC, ACI. The class given is cell-based.
In test [17] the test system is Mycolicibacterium aurum DSM 43999. The test is described as follows: Antimycobacterial microdilution broth MIC (resazurin), M. aurum. In kind it is cell-based. To be noted: DSM43999, read-out: MIC M. aurum (μg/mL).
For test [18], the system named is Mycolicibacterium smegmatis DSM 43465. The test is described as follows: Antimycobacterial microdilution broth MIC (resazurin), M. smegmatis. In kind it is cell-based. To be noted: DSM43465, read-out: MIC M. smegmatis (μg/mL).
Where [19] appears, read: read-out: MIC Mtb H37Ra (μg/mL).

Usually IC90 stands for the concentration at which the effect reaches the 90% level. For `C[C@@H]1[C@H](O)[C@@H](C)/C=C/C=C/C=C/C=C/C=C/C=C/C=C/[C@H](O[C@@H]2O[C@H](C)[C@@H](O)[C@H](N)[C@@H]2O)C[C@@H]2O[C@](O)(C[C@@H](O)C[C@@H](O)[C@H](O)CC[C@@H](O)C[C@@H](O)CC(=O)O[C@H]1C)C[C@H](O)[C@H]2C(=O)O` [Amphotericin B, amphotericin B, reference compound], the MIC worked out at 1 µg/mL (≈ 1.08 µM) in test [1]; 4 µg/mL (≈ 4.33 µM) in test [2]; 1 µg/mL (≈ 1.08 µM) in test [3]; 4 µg/mL (≈ 4.33 µM) in test [4]; 1 µg/mL (≈ 1.08 µM) in [5]; 1 µg/mL (≈ 1.08 µM) in test [6]. Besides, the MIC in [7] is 0.5 µg/mL (≈ 0.541 µM); in test [8] it was 1 µg/mL (≈ 1.08 µM). In addition, the 90% effect concentration (IC90) in test [1] (read-out: Amphotericin B - IC90 spectrophotometric detection, CK) was 1 µg/mL (≈ 1.08 µM); in test [2] (read-out: Amphotericin B - IC90 spectrophotometric detection, AFla) it was 4 µg/mL (≈ 4.33 µM); in test [3] (read-out: Amphotericin B - IC90 spectrophotometric detection, CT), 1 µg/mL (≈ 1.08 µM); in [4] (read-out: Amphotericin B - IC90 spectrophotometric detection, AF), 4 µg/mL (≈ 4.33 µM); in test [5] (read-out: Amphotericin B - IC90 spectrophotometric detection, LC), 1 µg/mL (≈ 1.08 µM); in [6] (read-out: Amphotericin B - IC90 spectrophotometric detection, CA), 1 µg/mL (≈ 1.08 µM). Besides, the IC90 in [7] (read-out: Amphotericin B - IC90 spectrophotometric detection, CP) worked out at 0.5 µg/mL (≈ 0.541 µM); in [8] (read-out: Amphotericin B - IC90 spectrophotometric detection, TI), 1 µg/mL (≈ 1.08 µM).
`O=C(O)c1cn(C2CC2)c2cc(N3CCNCC3)c(F)cc2c1=O` [CIP, ciprofloxacin, reference compound]: the MIC in [9] (read-out: MIC Mtb H37Ra (μM)) lay within 0.38 to 0.75 µM; in test [9] (setting [19]), 0.125 to 0.25 µg/mL.
Turning to `CNC(C)C1CCC(N)C(OC2C(N)CC(N)C(OC3OCC(C)(O)C(NC)C3O)C2O)O1` (stereo not shown) [Gentamicin, gentamicin, reference compound], the MIC was 1 µg/mL (≈ 2.09 µM) in [10] (internal quality controls, 24h, 95% inhibition of growth, 530 nm, read-out: MIC (µg/mL) EC, spectrophotometric detection); 1 µg/mL (≈ 2.09 µM) in test [10] (read-out: MIC (µg/mL) EC, Gentamicin – spectrophotometric detection, internal quality controls, 24h); greater than 8 µg/mL in [11] (internal quality controls, 24h, 95% inhibition of growth, 530 nm, read-out: MIC (µg/mL) EF, spectrophotometric detection); greater than 8 µg/mL in [11] (read-out: MIC (µg/mL) EF, Gentamicin – spectrophotometric detection, internal quality controls, 24h); 0.0625 µg/mL (≈ 0.131 µM) in test [12] (internal quality controls, 24h, 95% inhibition of growth, 530 nm, read-out: MIC (µg/mL) SE, spectrophotometric detection); 0.0625 µg/mL (≈ 0.131 µM) in test [12] (read-out: MIC (µg/mL) SE, Gentamicin – spectrophotometric detection, internal quality controls, 24h). The MIC was 0.5 µg/mL (≈ 1.05 µM) in test [13] (internal quality controls, 24h, 95% inhibition of growth, 530 nm, read-out: MIC (µg/mL) PA, spectrophotometric detection); 0.5 µg/mL (≈ 1.05 µM) in [13] (read-out: MIC (µg/mL) PA, Gentamicin – spectrophotometric detection, internal quality controls, 24h); greater than 8 µg/mL in test [14] (read-out: MIC (µg/mL) MRSA, Gentamicin – spectrophotometric detection); greater than 8 µg/mL in test [14] (95% inhibition of growth, 530 nm, read-out: MIC (µg/mL) MRSA, spectrophotometric detection); 0.5 µg/mL (≈ 1.05 µM) in [15] (read-out: MIC (µg/mL) SA, Gentamicin – spectrophotometric detection); 1 µg/mL (≈ 2.09 µM) in test [15] (95% inhibition of growth, 530 nm, read-out: MIC (µg/mL) SA, spectrophotometric detection). The MIC came to 8 µg/mL (≈ 16.8 µM) in [16] (internal quality controls, 24h, 95% inhibition of growth, 530 nm, read-out: MIC (µg/mL) ACI, spectrophotometric detection) and 8 µg/mL (≈ 16.8 µM) in test [16] (read-out: MIC (µg/mL) ACI, Gentamicin – spectrophotometric detection, internal quality controls, 24h).
For `CO[C@H]1/C=C/O[C@@]2(C)Oc3c(C)c(O)c4c(O)c(c(/C=N/N5CCN(C)CC5)c(O)c4c3C2=O)NC(=O)/C(C)=C\C=C\[C@H](C)[C@H](O)[C@@H](C)[C@@H](O)[C@@H](C)[C@H](OC(C)=O)[C@@H]1C` [RIF, rifampicin, reference compound], the MIC in test [17] is 0.39 to 0.78 µg/mL (≈ 0.474 to 0.948 µM); in [18], 1.56 to 6.25 µg/mL (≈ 1.9 to 7.59 µM); in test [9] (read-out: MIC Mtb H37Ra (μM)), 0.0037 µM; in test [9] (setting [19]), 0.00313 µg/mL.
Turning to `C[C@@H](c1ncncc1F)[C@](O)(Cn1cncn1)c1ccc(F)cc1F` [Voriconazole, voriconazole, reference compound], the MIC in test [1] was greater than 16 µg/mL; in test [2], greater than 16 µg/mL; in test [3], greater than 16 µg/mL; in test [4], 1 µg/mL (≈ 2.86 µM); in test [5] it was greater than 16 µg/mL; in test [6], greater than 16 µg/mL. The MIC in test [7] and in test [8] was greater than 16 µg/mL each time. In addition, the IC90 in test [1] (read-out: Voriconazole - IC90 spectrophotometric detection, CK) is 0.25 µg/mL (≈ 0.716 µM); in [2] (read-out: Voriconazole - IC90 spectrophotometric detection, AFla), 2 µg/mL (≈ 5.73 µM); in [3] (read-out: Voriconazole - IC90 spectrophotometric detection, CT), 2 µg/mL (≈ 5.73 µM); in [4] (read-out: Voriconazole - IC90 spectrophotometric detection, AF) it was 0.25 µg/mL (≈ 0.716 µM); in test [5] (read-out: Voriconazole - IC90 spectrophotometric detection, LC), greater than 16 µg/mL; in [6] (read-out: Voriconazole - IC90 spectrophotometric detection, CA), 0.03 µg/mL (≈ 0.0859 µM). Moreover, the IC90 in [7] (read-out: Voriconazole - IC90 spectrophotometric detection, CP) stood at 0.03 µg/mL (≈ 0.0859 µM); in test [8] (read-out: Voriconazole - IC90 spectrophotometric detection, TI) it was 1 µg/mL (≈ 2.86 µM).
